For assay [1], the target named is unphosphorylated c-KIT kinase (uKIT, Seq. ID no. 2) (Homo sapiens (Human), UniProt P10721). Description: uKit kinase assay (coupled pyruvate kinase/lactate dehydrogenase). The following applies: enzymatic assay, ATP 2000 μM. Format: biochemical. The method, then: uKit Kinase (Seq. ID No. 2) Assay
Activity of unphosphorylated c-KIT kinase (uKIT, Seq. ID no. 2) was determined by following the production of ADP from the KIT kinase reaction with ATP and poly E4Y as substrates through coupling with the pyruvate kinase/lactate dehydrogenase system (e.g., Schindler et al. Science (2000) 289: 1938-1942). In this assay, the oxidation of NADH (thus the decrease at A340 nm) was continuously monitored spectrophometrically. The reaction mixture (100 μl) contained unphosphorylated KIT (12 nM), polyE4Y (1 mg/mL), MgCl2 (10 mM), pyruvate kinase (4 units), lactate dehydrogenase (0.7 units), phosphoenol pyruvate (1 mM), and NADH (0.28 mM) and ATP (2000 μM) in 90 mM Tris buffer containing 0.2% octyl-glucoside and 1% DMSO, pH 7.5. The inhibition reaction was started by mixing serial diluted test compound with the above reaction mixture. The absorption at 340 nm was monitored continuously for 4 hours at 30° C. on Synergy 2 plate reader (BioTech). Reaction rates around 3 to 4 h time frame were used to calculate % inhibitions, from which IC50 values were generated.
uKit with N-Terminal GST Fusion Used for Screening (Seq ID No. 2)

The subject of assay [2] is osteoclast precursors. Description: Osteoclast tartrate-resistant acid phosphatase assay. Format: cell-based. Particulars: 7-14 days, RANKL and M-CSF.
In assay [3] the target is unphosphorylated PDGFRβ kinase (uPDGFRβ, Seq. ID No. 3) (Homo sapiens (Human), UniProt P09619). Description: Unphosphorylated PDGFRβ kinase assay (coupled pyruvate kinase/lactate dehydrogenase). Format: biochemical. The following applies: enzymatic assay, ATP 500 μM. The method, then: Unphosphorylated PDGFRβ (uPDGFRβ) Kinase (Seq. ID No. 3) Assay
Chain of unphosphorylated PDGFRβ kinase (uPDGFRβ, Seq. ID No. 3) (P09619 557-1106): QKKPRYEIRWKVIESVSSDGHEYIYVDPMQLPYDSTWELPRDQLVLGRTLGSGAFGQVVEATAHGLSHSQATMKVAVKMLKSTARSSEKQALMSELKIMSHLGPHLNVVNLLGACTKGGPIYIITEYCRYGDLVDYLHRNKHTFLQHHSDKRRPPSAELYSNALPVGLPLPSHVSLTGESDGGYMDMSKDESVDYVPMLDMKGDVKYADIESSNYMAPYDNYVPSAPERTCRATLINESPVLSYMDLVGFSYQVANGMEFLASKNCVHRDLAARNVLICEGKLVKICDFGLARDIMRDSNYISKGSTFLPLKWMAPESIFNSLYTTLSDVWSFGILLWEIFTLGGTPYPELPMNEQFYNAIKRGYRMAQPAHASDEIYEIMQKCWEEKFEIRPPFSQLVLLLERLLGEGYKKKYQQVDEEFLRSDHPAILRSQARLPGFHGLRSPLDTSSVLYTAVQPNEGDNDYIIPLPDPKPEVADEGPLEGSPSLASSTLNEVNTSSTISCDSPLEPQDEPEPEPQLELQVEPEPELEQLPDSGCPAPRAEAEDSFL
Activity of unphosphorylated PDGFRβ kinase (uPDGFRβ, Seq. ID No. 3) was determined by following the production of ADP from the kinase reaction with ATP and poly E4Y as substrates through coupling with the pyruvate kinase/lactate dehydrogenase system (e.g., Schindler et al. Science (2000) 289: 1938-1942). In this assay, the oxidation of NADH (thus the decrease at A340 nm) was continuously monitored spectrophometrically. The reaction mixture (100 μL) contained PDGFRβ (DeCode, 15.7 nM), polyE4Y (2.5 mg/mL), MgCl2 (10 mM), pyruvate kinase (4 units), lactate dehydrogenase (0.7 units), phosphoenol pyruvate (1 mM) and NADH (0.28 mM) and ATP (500 μM) in a 90 mM Tris buffer containing 0.2% octyl-glucoside and 1% DMSO, at pH 7.5. The inhibition reaction was started by mixing serial diluted test compound with the above reaction mixture. The absorption at 340 nm was monitored continuously for 4 h at 30° C. on a Polarstar Optima or Synergy 2 plate reader. The reaction rate was calculated using the 1.5 to 2.5 h time frame. Percent inhibition was obtained by comparison of reaction rate with that of a control (i.e., with no test compound). IC50 values were calculated from a series of percent inhibition values determined at a range of inhibitor concentrations using software routines as implemented in the GraphPad Prism software package.
uPDGFRβ Kinase Sequence (Residues 557-1106) Used for Screening (Seq ID No. 3)

For assay [4], the system named is M-NFS-60 cells. Description: M-NFS-60 cell proliferation assay (resazurin). Format: cell-based. The following applies: 67 h incubation. An outline of the steps: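 Cells kept in medium containing 20 ng/mL mouse recombinant M-CSF. Fluorescence was read at ex 540/em 600 nm, and IC50 was fitted from percent inhibition across a range of inhibitor concentrations.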
Assay [5] has as its target unphosphorylated c-FMS kinase (uFMS, Seq. ID no. 1) (Homo sapiens (Human), UniProt P07333). Put plainly: uFMS kinase assay (ADP production coupled to pyruvate kinase/lactate dehydrogenase). Particulars: enzymatic assay, ATP 500 μM. Format: biochemical. An outline of the steps:
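Unphosphorylated FMS (10 nM) with polyE4Y 1 mg/mL and 500 μM ATP in 90 mM Tris pH 7.5, 10 mM MgCl2, 0.2% octyl-glucoside, 1% DMSO. ADP formation was coupled via pyruvate kinase/LDH to NADH oxidation, followed at A340 for 4 h at 30° C.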

Where two headings read alike, the source gives them in different places.

Chain of unphosphorylated c-KIT kinase (uKIT, Seq. ID no. 2) (P10721 other isoform, or with tags, fused parts or gaps): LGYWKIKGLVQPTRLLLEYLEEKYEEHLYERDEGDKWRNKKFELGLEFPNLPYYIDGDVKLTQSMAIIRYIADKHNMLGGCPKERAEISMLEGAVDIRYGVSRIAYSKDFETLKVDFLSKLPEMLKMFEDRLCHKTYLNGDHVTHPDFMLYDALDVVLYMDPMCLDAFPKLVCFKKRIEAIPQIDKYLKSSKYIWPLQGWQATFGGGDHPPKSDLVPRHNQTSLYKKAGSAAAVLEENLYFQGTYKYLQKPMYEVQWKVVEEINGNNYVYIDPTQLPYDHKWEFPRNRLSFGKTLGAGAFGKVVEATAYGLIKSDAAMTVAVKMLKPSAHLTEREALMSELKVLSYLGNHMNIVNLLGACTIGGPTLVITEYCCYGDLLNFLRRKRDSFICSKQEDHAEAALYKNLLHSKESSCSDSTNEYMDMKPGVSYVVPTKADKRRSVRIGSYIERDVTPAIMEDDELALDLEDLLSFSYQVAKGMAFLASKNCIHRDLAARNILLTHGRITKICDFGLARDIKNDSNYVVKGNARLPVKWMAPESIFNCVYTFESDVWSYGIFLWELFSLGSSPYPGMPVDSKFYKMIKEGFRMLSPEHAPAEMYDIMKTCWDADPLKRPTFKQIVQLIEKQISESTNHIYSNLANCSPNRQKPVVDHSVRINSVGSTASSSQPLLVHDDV
Chain of unphosphorylated c-FMS kinase (uFMS, Seq. ID no. 1) (P07333 538-972): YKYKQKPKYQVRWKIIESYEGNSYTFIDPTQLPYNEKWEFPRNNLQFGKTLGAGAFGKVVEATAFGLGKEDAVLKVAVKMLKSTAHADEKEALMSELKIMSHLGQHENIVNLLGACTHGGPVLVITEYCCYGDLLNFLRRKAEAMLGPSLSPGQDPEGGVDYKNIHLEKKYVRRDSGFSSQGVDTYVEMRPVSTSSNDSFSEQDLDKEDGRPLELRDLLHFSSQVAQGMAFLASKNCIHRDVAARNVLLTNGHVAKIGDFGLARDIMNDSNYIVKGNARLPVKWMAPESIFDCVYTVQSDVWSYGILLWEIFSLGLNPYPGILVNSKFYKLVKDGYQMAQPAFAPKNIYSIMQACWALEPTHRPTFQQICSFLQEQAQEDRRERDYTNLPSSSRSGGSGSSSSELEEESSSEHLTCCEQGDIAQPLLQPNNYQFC

Turning to `Cn1cc(-c2cc(Oc3ccc(NC(=O)N4CCN(CC(F)(F)F)C4=O)nc3)ccn2)cn1` [Example 48, N-(5-((2-(1-methyl-1H-pyrazol-4-yl)pyridin-4-yl)oxy)pyridin-2-yl)-2-oxo-3-(2,2,2-trifluoroethyl)imidazolidine-1-carboxamide], the IC50 in assay [1] was less than 10 nM; in assay [2] (Osteoclast), less than 10 nM; in assay [3], 100 to 1000 nM; in assay [4], 10 to 100 nM; in assay [5] (read-out: uFMS), less than 10 nM.
Regarding `CCN1CCN(C(=O)Nc2ccc(Oc3ccnc(-c4cnc(C)s4)c3)c(C)n2)C1=O` [Example 70, 3-ethyl-N-(6-methyl-5-((2-(2-methylthiazol-5-yl)pyridin-4-yl)oxy)pyridin-2-yl)-2-oxoimidazolidine-1-carboxamide], the IC50 in assay [1] is 100 to 1000 nM; in assay [2] (Osteoclast), 10 to 100 nM; in assay [3] it was more than 1000 nM; in assay [4] it was 100 to 1000 nM; in assay [5] (read-out: uFMS), 10 to 100 nM.
For `Cc1cc(NC(=O)N2CCN(C3CCCC3)C2=O)nc(C)c1Oc1ccnc(-c2cnn(C)c2)c1` [Example 72, 3-cyclopentyl-N-(4,6-dimethyl-5-((2-(1-methyl-1H-pyrazol-4-yl)pyridin-4-yl)oxy)pyridin-2-yl)-2-oxoimidazolidine-1-carboxamide], the IC50 was less than 10 nM in assay [1]; less than 10 nM in assay [2] (Osteoclast); 10 to 100 nM in assay [3]; less than 10 nM in assay [4]; less than 10 nM in assay [5] (read-out: uFMS).
As for `CCN1CCN(C(=O)Nc2ccc(Oc3ccnc(-c4cnn(C)c4)c3)cn2)C1=O` [Example 45, 3-ethyl-N-(5-((2-(1-methyl-1H-pyrazol-4-yl)pyridin-4-yl)oxy)pyridin-2-yl)-2-oxoimidazolidine-1-carboxamide], the IC50 is 10 to 100 nM in assay [1]; less than 10 nM in assay [2] (Osteoclast); more than 1000 nM in assay [3]; 10 to 100 nM in assay [4]; less than 10 nM in assay [5] (read-out: uFMS).
In the case of `Cc1nc(NC(=O)N2CCN([C@@H]3CCOC3)C2=O)ccc1Oc1ccnc(-c2cnn(C)c2)c1` [Example 28, (R)—N-(6-methyl-5-((2-(1-methyl-1H-pyrazol-4-yl)pyridin-4-yl)oxy)pyridin-2-yl)-2-oxo-3-(tetrahydrofuran-3-yl)imidazolidine-1-carboxamide], the IC50 in assay [1] is 100 to 1000 nM; in assay [2] it was less than 10 nM; in assay [3], more than 1000 nM; in assay [4] it was 10 to 100 nM; in assay [5] (uFMS), less than 10 nM.
Regarding `Cc1nc(NC(=O)N2CCN(C3CC3)C2=O)ccc1Oc1ccnc(-c2ccc(C3CCN(C)CC3)cc2)c1` [Example 86, 3-cyclopropyl-N-(6-methyl-5-((2-(4-(1-methylpiperidin-4-yl)phenyl)pyridin-4-yl)oxy)pyridin-2-yl)-2-oxoimidazolidine-1-carboxamide], the IC50 in assay [1] was 10 to 100 nM; in assay [2] (Osteoclast), less than 10 nM; in assay [3], more than 1000 nM; in assay [4], less than 10 nM; in assay [5] (read-out: uFMS), less than 10 nM.
Consider `Cn1cc(-c2cc(Oc3cc(F)c(NC(=O)N4CCN(C5CCOCC5)C4=O)cc3Br)ccn2)cn1` [Example 109, N-(5-bromo-2-fluoro-4-((2-(1-methyl-1H-pyrazol-4-yl)pyridin-4-yl)oxy)phenyl)-2-oxo-3-(tetrahydro-2H-pyran-4-yl)imidazolidine-1-carboxamide], for which the IC50 in assay [1] is 10 to 100 nM; in assay [2] (Osteoclast), 100 to 1000 nM; in assay [3], more than 1000 nM; in assay [4], 10 to 100 nM; in assay [5] (read-out: uFMS) it was 10 to 100 nM.
On to `Cn1cc(-c2cc(Oc3cc(F)c(NC(=O)N4CCN(CC(O)C(C)(C)C)C4=O)cc3Cl)ccn2)cn1` (centres unmarked) [Example 112, N-(5-chloro-2-fluoro-4-((2-(1-methyl-1H-pyrazol-4-yl)pyridin-4-yl)oxy)phenyl)-3-(2-hydroxy-3,3-dimethylbutyl)-2-oxoimidazolidine-1-carboxamide], for which the IC50 in assay [1] lay in the range of 10 to 100 nM; in assay [3], 100 to 1000 nM; in assay [4], 100 to 1000 nM; in assay [5] (read-out: uFMS) it was 10 to 100 nM.
For `Cn1cnc(-c2cc(Oc3ccc(NC(=O)N4CCN(C5CCOCC5)C4=O)nc3)ccn2)c1` [Example 83, N-(5-((2-(1-methyl-1H-imidazol-4-yl)pyridin-4-yl)oxy)pyridin-2-yl)-2-oxo-3-(tetrahydro-2H-pyran-4-yl)imidazolidine-1-carboxamide], the IC50 in assay [1] was 10 to 100 nM; in assay [2] (Osteoclast) it was 10 to 100 nM; in assay [3] it was 100 to 1000 nM; in assay [4], 10 to 100 nM; in assay [5] (read-out: uFMS), 10 to 100 nM.
As for `CC(=O)Nc1cc(Oc2ccc(NC(=O)N3CCN(C4CCOCC4)C3=O)nc2C)ccn1` [Example 121, N-(5-((2-acetamidopyridin-4-yl)oxy)-6-methylpyridin-2-yl)-2-oxo-3-(tetrahydro-2H-pyran-4-yl)imidazolidine-1-carboxamide], the IC50 in assay [1] is 100 to 1000 nM; in assay [2] (Osteoclast), 100 to 1000 nM; in assay [3], 100 to 1000 nM; in assay [4] it was 100 to 1000 nM; in assay [5] (read-out: uFMS), 10 to 100 nM.
Turning to `Cc1nc(NC(=O)N2CC(C)(C)N(C3CCCCC3)C2=O)ccc1Oc1ccnc(-c2cnn(C)c2)c1` [Example 32, 3-cyclohexyl-4,4-dimethyl-N-(6-methyl-5-((2-(1-methyl-1H-pyrazol-4-yl)pyridin-4-yl)oxy)pyridin-2-yl)-2-oxoimidazolidine-1-carboxamide], the IC50 in assay [1] was 100 to 1000 nM; in assay [3] it was more than 1000 nM; in assay [5] (read-out: uFMS), 100 to 1000 nM.
Take `Cn1cc(-c2cc(Oc3ccc(NC(=O)N4CC(C)(C)N(C5CCCCC5)C4=O)nc3)ccn2)cn1` [Example 31, 3-cyclohexyl-4,4-dimethyl-N-(5-((2-(1-methyl-1H-pyrazol-4-yl)pyridin-4-yl)oxy)pyridin-2-yl)-2-oxoimidazolidine-1-carboxamide]: the IC50 in assay [1] is 100 to 1000 nM; in assay [3], more than 1000 nM; in assay [4], more than 1000 nM; in assay [5] (read-out: uFMS), 10 to 100 nM.
For `Cn1cc(-c2cc(Oc3ccc(NC(=O)N4CCN([C@@H]5CCOC5)C4=O)nc3)ccn2)cn1` [Example 27, (R)—N-(5-((2-(1-methyl-1H-pyrazol-4-yl)pyridin-4-yl)oxy)pyridin-2-yl)-2-oxo-3-(tetrahydrofuran-3-yl)imidazolidine-1-carboxamide], the IC50 in assay [2] is less than 10 nM; in assay [3] it was more than 1000 nM; in assay [4], 10 to 100 nM; in assay [5] (read-out: uFMS), less than 10 nM.
Turning to `COCCCN1CCN(C(=O)Nc2cc(Cl)c(Oc3ccnc(-c4cnn(C)c4)c3)cc2F)C1=O` [Example 103, N-(5-chloro-2-fluoro-4-((2-(1-methyl-1H-pyrazol-4-yl)pyridin-4-yl)oxy)phenyl)-3-(3-methoxypropyl)-2-oxoimidazolidine-1-carboxamide], the IC50 is 100 to 1000 nM in assay [2] (Osteoclast), more than 1000 nM in assay [3], 100 to 1000 nM in assay [4] and 10 to 100 nM in assay [5] (read-out: uFMS).
`COC(C)(C)CCN1CCN(C(=O)Nc2cc(Cl)c(Oc3ccnc(-c4cnn(C)c4)c3)cc2F)C1=O` [Example 108, N-(5-chloro-2-fluoro-4-((2-(1-methyl-1H-pyrazol-4-yl)pyridin-4-yl)oxy)phenyl)-3-(3-methoxy-3-methylbutyl)-2-oxoimidazolidine-1-carboxamide]: the IC50 was 100 to 1000 nM in assay [2] (Osteoclast), more than 1000 nM in assay [3], 100 to 1000 nM in assay [4] and 10 to 100 nM in assay [5] (read-out: uFMS).

Values taken from patent US9133183B2, “Imidazolidinones and analogs exhibiting anti-cancer and anti-proliferative activities” (Deciphera Pharmaceuticals, LLC, priority 2013, dated 2015).
